This is an account of results in patent US20230102973A1, “Medical Use of Anemoside B4 in the Treatment of Oral Ulcers” (priority 2020, published 2023).

The test system of assay [1] is oral ulcer induced by paclitaxel in rats. In words: Paclitaxel-induced oral ulcer model in rats (food intake, ulcer diameter). It counts as in vivo, SD rats. The settings on record: intraperitoneal once a day for 5 days. As for the experimental part:
Rats were anesthetized by intraperitoneal injection of 10% chloral hydrate solution. After anesthesia, the oral ulcer model induced by chemotherapeutic drugs was established by injecting 50 μl of 6 mg/ml paclitaxel injection into the right buccal mucosa of rats.
All animals with successful modeling were randomly divided into model group, (7 rats), anemoside B4 high dose (about 60 mg/kg*2) group (7 rats), and normal group (6 rats).
24 h after modeling, in anemoside B4 group, rectal administration was performed, 1 suppository/time, twice a day, for 5 successive days; in dexamethasone group, intraperitoneal administration was performed, once a day, for 5 successive days; and in model group, blank suppository was given.
(1) General observation: On the day of modeling, rats were fasted but free access to water for 12 hours, while the diet was given quantitatively on the second day after modeling, and the food intake of rats in each cage was measured daily from the third day after modeling (the second day after administration). (2) Measurement of ulcer surface diameter: from the 2nd day after modeling, the diameter of ulcer surface was measured with a vernier caliper and recorded for 7 successive days.

Assay [2] has as its system oral ulcer induced by acetic acid in rats. In words: Acetic acid-induced oral ulcer model in rats (body weight, food intake, ulcer diameter). It counts as in vivo, SD rats. Conditions: 0.3 mg/kg intraperitoneal once a day. The text has this: Rats were anesthetized by intraperitoneal injection of 10% chloral hydrate solution. After anesthesia, 3 mm×3 mm filter paper impregnated with 100% glacial acetic acid was clung to the right buccal mucosa of rats for 45 s. After cauterization for 45 s, a round or oval white lesion of the buccal mucosa in this area was observed, indicating successful modeling.
All animals with successful modeling were randomly divided into six groups according to the ulcer area: (1) model group, 14 rats; (2) Xilei powder (15 mg/kg) group, 12 rats; (3) dexamethasone (0.3 mg/kg) group, 13 rats; (4) anemoside B4 high dose (about 60 mg/kg*3, i.e. 14 mg/suppository, one suppository/time, 3 times/day) group, 14 rats; (5) anemoside B4 medium dose (about 30 mg/kg*3, i.e. 7 mg/suppository, one suppository/time, 3 times/day) group, 14 rats; (6) anemoside B4 low dose (about 15 mg/kg*3, i.e. 3.5 mg/suppository, one suppository/time, 3 times/day) group, 14 rats; and 6 rats were included in the normal group.
24 h after modeling, drug was administrated for 3 successive days, including: local administration in Xilei powder group, once a day; intraperitoneal injection in dexamethasone group, once a day; rectal administration in anemoside B4 group, 3 times a day, and administration of blank suppository in model group, 3 times a day.
(1) General observation: daily food intake per cage was measured from the 2nd day after modeling, and animal weight was measured every 2 days. (2) Measurement of ulcer surface diameter: on the 2nd, 4th and 5th day after modeling, the diameter of ulcer surface was measured with a vernier caliper and recorded.

For the compound `C[C@@H]1C[C@H]2[C@@H]3CCC4=CC(=O)C=C[C@]4(C)[C@@]3(F)[C@@H](O)C[C@]2(C)[C@@]1(O)C(=O)CO` [Dexamethasone], the “Diameter of oral ulcers” value is 3.93 ± 0.48 mm in assay [1] (the 2nd day after modeling); 4.00 ± 0.40 mm in assay [1] (the 3rd day after modeling); 3.88 ± 0.58 mm in assay [1] (the 4th day after modeling); 3.50 ± 0.87 mm in assay [1] (the 5th day after modeling); 3.26 ± 0.84 mm in assay [1] (the 6th day after modeling); 2.85 ± 0.81 mm in assay [1] (the 7th day after modeling). The Food intake/rat in assay [1] (the 3rd day after modeling) is given as 13.78 ± 3.83 g; in assay [1] (the 4th day after modeling), 10.61 ± 2.48 g; in assay [1] (the 5th day after modeling), 13.91 ± 1.92 g; in assay [1] (the 6th day after modeling), 19.84 ± 1.14 g; in assay [1] (the 7th day after modeling), 18.79 ± 0.56 g. The Body weight in assay [2] (the 2nd day after modeling) is 230 + 8.3 g; in assay [2] (the 4th day after modeling) it was 216 + 9.2 g; in assay [2] (the 6th day after modeling), 213 + 13.7 g. For the same compound, the results for the “Diameter of oral ulcer” value in assay [2] (the 2nd day after modeling), in assay [2] (the 4th day after modeling) and in assay [2] (the 5th day after modeling) were 4.64 ± 0.38 mm, 3.16 ± 0.18 mm and 2.78 ± 0.26 mm, respectively. Further, the figures for the “Food intake (g)/rat” value in assay [2] (the 3rd day after modeling), in assay [2] (the 4th day after modeling) and in assay [2] (the 5th day after modeling) were 13.4 ± 3.35 g, 8.2 ± 2.39 g and 12.1 ± 4.70 g, respectively.
